Assay results: article PMC5733122, “Purification, Characterization, and Mode of Action of Pentocin JL-1, a Novel Bacteriocin Isolated from Lactobacillus pentosus, against Drug-Resistant Staphylococcus aureus” (BioMed Research International, 2017)

What was measured:
MRSA GIM 1.771 [1] = test: Growth curve, OD600; assay type: cell-based, Staphylococcus aureus; details: 1x MIC added after 6 h (exponential phase), TSB, 37°C, 24 h
Procedure: (§1) The bacteriostatic or bactericidal mode of action of pentocin JL-1 was tested as described previously by Zhu et al. with some modifications. MRSA GIM 1.771 was cultivated to the exponential phase in 100 mL of TSB culture medium. The lyophilized purified pentocin JL-1 dissolved in 0.05% (w/v) acetic acid was added to the cultures at a final concentration of 1x MIC and the same volume of 0.05% (w/v) acetic acid was added to the aforementioned media as a control. Samples were incubated at 37°C and bacterial suspensions were taken each hour for 24 h, and the absorbance was measured at OD600. In addition, the viable cell counts on TSB agar medium after the addition of 1x MIC, 2x MIC, and 3x MIC of pentocin JL-1 were also quantified every 10 min for 1 h.

MRSA GIM1.771 = test: Agar-well diffusion test; assay type: cell-based, Staphylococcus aureus; details: pH 5.5
Procedure: (§2) The intestinal tracts of C. punctatum (grey carpet shark) were dissected and homogenized in 20 mL saline solution under sterile conditions and were then plated in serial dilutions in deMan, Rogosa, and Sharpe (MRS) medium. The plates were incubated aerobically at 30°C for 24 h. Several colonies were picked at random and incubated again in MRS broth. For screening for bacteriocin-producing strains, the agar-well diffusion test was used to detect antimicrobial activity in cell-free supernatants (filtered through a 0.22 μm Millipore filter) obtained by centrifugation (10,000g, 30 min, 4°C) after 18, 36, 60, and 72 h incubation. The Gram-positive strain MRSA GIM 1.771 and the Gram-negative strain Escherichia coli O157:H7 GIM 1.707 were used as indicator strains. Before the experiments, the indicator strains were grown to 10^6 CFU/mL. Then, 1 mL of the culture was mixed with 100 mL soft agar medium and poured onto individual Petri dishes. Subsequently, 8 mm diameter wells were punched onto the plates, and each well was filled with 100 μL of the cell-free supernatants under sterile conditions. The plates were incubated overnight at their respective optimum temperatures, and the clear zones of inhibition were measured in diameter and indicated the presence of antimicrobial activity. In our study, all bacteria culture media and chemical reagents were supplied by Sigma-Aldrich (USA).
(§3) The agar-well diffusion test as described previously was used to detect the antimicrobial activity of the purified pentocin JL-1 (15 μg/mL, pH 5.5). LAB strains were grown in MRS broth at 30°C for 16 h. Other Gram-positive indicator strains were grown in Tryptone Soy Broth (TSB) medium at 37°C and the Gram-negative indicator strains were grown in Luria-Bertani broth medium at 37°C.
(§4) The residual antibacterial activities of the above samples were calculated using the agar-well diffusion test with MRSA GIM 1.771 as the indicator strain. […] Lyophilized pentocin JL-1 dissolved in 0.05% (w/v) acetic acid at 15 μg/mL with pH 5.5 was used as a control in all assays.

[2] = Thermal sensitivity, residual antibacterial activity; assay type: physicochemical; details: for Residual inhibitory activity (inhibition zone diameter, mm): 15 μg/mL in 0.05% (w/v) acetic acid, agar-well diffusion vs MRSA GIM 1.771, mean ± SD, triplicate; for Residual inhibitory activity (%): 15 μg/mL in 0.05% acetic acid, vs MRSA GIM 1.771, relative to control
Procedure: To determine thermal sensitivity, lyophilized purified pentocin JL-1 dissolved in 0.05% (w/v) acetic acid at 15 μg/mL was evaluated at different temperatures (−20°C, 4°C, 30°C, 60°C, and 100°C) for 1 h and also at the autoclaved condition (121°C at 15 psi for 15 min).
as §4

MRSA GIM 1.771 [3] = test: Time-killing kinetics, viable cell counts; assay type: cell-based, Staphylococcus aureus; details: for instantaneous killing action, log10 reduction: at 0 h, viable cell counts on TSB agar, exponential-phase culture, 37°C
Procedure: as §1

[4] = tested on: Bacillus subtilis CGMCC1.1627; test: Agar-well diffusion test; assay type: cell-based
Procedure: as §2, §3

[5] = tested on: Pseudomonas aeruginosa CGMCC1.1785; test: Agar-well diffusion test; assay type: cell-based
Procedure: as §2, §3

[6] = tested on: Multidrug-resistant S. aureus 3; test: Agar-well diffusion test; assay type: cell-based; details: 15 μg/mL, pH 5.5, pork isolate resistant to FOX, TET, GEN, mean ± SD, triplicate
Procedure: as §2, §3

[7] = tested on: Micrococcus luteus CGMCC1.2299; test: Agar-well diffusion test; assay type: cell-based
Procedure: as §2, §3

[8] = tested on: Multidrug-resistant S. aureus 4; test: Agar-well diffusion test; assay type: cell-based; details: 15 μg/mL, pH 5.5, pork isolate resistant to FOX, TET, C, mean ± SD, triplicate
Procedure: as §2, §3

[9] = tested on: Enterococcus faecalis ATCC51575; test: Agar-well diffusion test; assay type: cell-based
Procedure: as §2, §3

[10] = tested on: Multidrug-resistant S. aureus 5; test: Agar-well diffusion test; assay type: cell-based; details: 15 μg/mL, pH 5.5, pork isolate resistant to FOX, TET, GEN, C, mean ± SD, triplicate
Procedure: as §2, §3

[11] = tested on: Multidrug-resistant S. aureus 1; test: Agar-well diffusion test; assay type: cell-based; details: 15 μg/mL, pH 5.5, pork isolate resistant to FOX, TET, mean ± SD, triplicate
Procedure: as §2, §3

[12] = 121°C, 15 min (autoclaved, 15 psi)
[13] = purified pentocin JL-1 15 μg/mL, pH 5.5, inhibition zone diameter class incl. 8 mm well

In the case of “VAKVAR [pentocin JL-1, novel bacteriocin produced by Lactobacillus pentosus JL-1, purified by four-step chromatography, molecular mass 2987.23 Da, cationic and hydrophobic peptide]”, the “OD600 values after addition” value (MRSA GIM 1.771 [1]) is reported as “nearly stable”, the “Residual inhibitory activity (%)” value (MRSA GIM1.771; Control: untreated pentocin JL-1 15 μg/mL in 0.05% (w/v) acetic acid) is reported as 100.00% and the “Residual inhibitory activity (inhibition zone diameter, mm)” value (MRSA GIM1.771; Control: untreated pentocin JL-1 15 μg/mL in 0.05% (w/v) acetic acid, mean ± SD, triplicate) is reported as 23.9 ± 0.7 mm. For the same substance, the Antimicrobial activity (MRSA GIM1.771; agar-well diffusion, purified pentocin JL-1 15 μg/mL, inhibition zone diameter class incl. 8 mm well) was “+++ (+++: 20–25)”, the “Residual inhibitory activity (inhibition zone diameter, mm)” value ([2]; 4°C, 1 h) was 23.8 ± 1.2 mm and the “Residual inhibitory activity (%)” value ([2]; 4°C, 1 h) was 99.58%. For the same substance, the “Residual inhibitory activity (inhibition zone diameter, mm)” value ([2]; 30°C, 1 h) was 23.9 ± 0.2 mm, the “Residual inhibitory activity (%)” value ([2]; 30°C, 1 h) was 100.00% and the “Residual inhibitory activity (inhibition zone diameter, mm)” value ([2]; 60°C, 1 h) was 23.6 ± 0.8 mm. The “Residual inhibitory activity (%)” value ([2]; 60°C, 1 h) was 98.74%, the “Residual inhibitory activity (inhibition zone diameter, mm)” value ([2]; 100°C, 1 h) was 22.6 ± 0.8 mm and the “Residual inhibitory activity (inhibition zone diameter, mm)” value [2, 12] was 20.1 ± 0.9 mm. For the same substance, the “Residual inhibitory activity (%)” value [2, 12] was 84.10^∗ %, the “Residual inhibitory activity (inhibition zone diameter, mm)” value ([2]; −20°C, 1 h) was 22.2 ± 1.0 mm and the “instantaneous killing action, log10 reduction” value (MRSA GIM 1.771 [3]; 1x MIC) was 1.05 log10. For the same substance, the “mode of action (bacteriostatic or bactericidal)” value (MRSA GIM 1.771 [3]; 1x, 2x, 3x MIC, viable counts over 1 h) was “bactericidal”, the “instantaneous killing action, log10 reduction” value (MRSA GIM 1.771 [3]; 2x MIC) was 2.14 log10 and the “instantaneous killing action, log10 reduction” value (MRSA GIM 1.771 [3]; 3x MIC) was 2.21 log10. For the same substance, the “inhibitory activity” value ([4]; 15 μg/mL, pH 5.5) was “inhibited”, the Antimicrobial activity [4, 13] was “++ (++: 15–19)” and the “inhibitory activity” value ([5]; 15 μg/mL, pH 5.5) was “inhibited”. The Antimicrobial activity [5, 13] was “+ (+: 10–14)”, the Inhibitor zone [6] was 24.3 ± 0.7 mm and the “inhibitory activity” value ([7]; 15 μg/mL, pH 5.5) was “inhibited”. For the same substance, the Antimicrobial activity [7, 13] was “++ (++: 15–19)”, the Inhibitor zone [8] was 22.4 ± 0.6 mm and the “inhibitory activity” value ([9]; 15 μg/mL, pH 5.5) was “inhibited”. For the same substance, the Antimicrobial activity [9, 13] was “++ (++: 15–19)”, the Inhibitor zone [10] was 23.9 ± 1.5 mm and the Inhibitor zone [11] was 23.8 ± 0.8 mm.
